Test results reported in patent US10123985B2, “Therapeutic strategies for treating mitochondrial disorders” (Whitehead Institute for Biomedical Research, priority 2015, dated 2018).
Entries after “also recorded” stand apart in the source; their conditions may differ.

Key:
[1] = tested on: A172, H1299, HeLa, U87, FL5.12, and MEF cell lines; assay: Proliferation assay of a panel of cell lines treated with respiration inhibitors; format: cell-based; conditions: rotenone, antimycin or oligomycin plus the substance
Description: 143B, A172, H1299, HeLa, U87 and MEF cells were cultured in Dulbecco's Modified Eagle's Medium (DMEM) (Gibco) supplemented with 10% fetal bovine serum (FBS) and penicillin-streptomycin. FL5.12 cells were cultured in the same medium and supplemented with 5 μg/mL recombinant mouse IL-3 (R&D Systems). 143B cybrid cell lines (WT Cybrid and CytB) were cultured in DMEM with 10% FBS, penicillin-streptomycin, and 0.1 mg/mL uridine. All cells incubated at 37° C. with 5% CO2.
Adherent cell lines growing in log phase were trypsinized, counted, and plated onto 6 well dishes (Corning) in 2 mL complete DMEM and incubated overnight. Initial seeding density was 2E4 cells per well for 143B, A172, H1299, HeLa, 143B WT Cybrid, and MEFs and 3E4 cells for 143B CytB and U87 cells. The following day, one plate of cells was counted to determine the initial cell count at the time of treatment. Cells were washed 2 times with 2 mL phosphate buffered saline (PBS) and 4 mL media premixed with the indicated treatments was added. FL5.12 cells, a suspension cell line, were washed 2 times in PBS and added directly to media containing the indicated treatments and 5 μg/mL recombinant mouse IL-3. Proliferation rate assay media was DMEM without pyruvate containing 10% dialyzed FBS, penicillin-streptomycin, and 0.1 mg/mL uridine, unless otherwise noted. For these cell lines at these seeding densities it was determined that for 4 days the cells maintained logarithmic proliferation (data not shown), therefore final cell counts were measured 4 days after treatment. Cells were counted using Cellometer Auto T4 Plus Cell Counter (Nexcelom Bioscience). Proliferation rate was determined using the following formula: Proliferation Rate (Doublings per day)=(log2(Final cell count (day 5)/Initial cell count (day 1))/4 (days)

[2] = tested on: 143B WT cybrid and 143B CytB cells; assay: Mitochondrial oxygen consumption (Seahorse XF24), cybrid cells; format: cell-based; conditions: presence or absence of the substance
Description: Oxygen consumption rates were determined on a Seahorse Bioscience Extracellular Flux Analyzer (XF24). Cells were plated in Seahorse Bioscience 24 well plates at 6E4 cells per well in 100 μL complete DMEM, allowed to attach for 1 hour, and 500 μl complete DMEM was added before overnight incubation. The following day cells were washed 2 times in assay media: DMEM without phenol red or pyruvate containing 0.5% dialyzed FBS and 0.1 mg/mL uridine at pH 7.4 and incubated in 500 μL of the same media for the assay. Oxygen consumption measurements were compared either, between basal measurements and following injection of the compound (AKB, rotenone, antimycin), or between wells cultured overnight in their treatment conditions (aspartate, oligomycin, FCCP). The latter conditions were used due to solubility constraints (aspartate) or kinetic constraints of the compound (oligomycin). These measurements were then subtracted from oxygen consumption measurements following addition of high dose rotenone and antimycin treatment (2 μM each) to determine the mitochondria specific oxygen consumption rate. Following measurements, the number of cells in the wells was counted, averaged for each treatment condition, and the mitochondrial oxygen consumption rates were normalized to 1E5 cells.

143B CytB cells [3] = assay: Amino acid and TCA cycle metabolite GC-MS analysis, 143B CytB cells; format: cell-based; conditions: AKB withdrawal
Description: 143B and 143B CytB cells were seeded at 400,000 cells/well in 6 well dishes overnight. The following day, cells were washed 2 times in PBS and media was changed to proliferation assay media with or without the indicated treatments. After 8 hours, polar metabolites were extracted using 80% methanol in water with 1 μg norvaline per sample. Soluble content was then dried under nitrogen gas. Polar samples were derivatized and measured as detailed in (Lewis). Relative metabolite abundances were determined by integrating ion peak area (Metran) and normalized to norvaline internal extraction standard.

143B CytB cells [4] = assay: Cell cycle distribution by propidium iodide flow cytometry; format: cell-based; conditions: 143B CytB cells without AKB compared with AKB, 78 hours
Description: 143B CytB cells were incubated in untreated media or media containing AKB or 100 μM adenine for 78 hours before being washed with PBS, trypsinized, pelleted, and resuspended in 500 μL PBS. Cells were fixed by adding 4.5 mL 70% ethanol and incubated at 4° C. overnight. The following day cells were pelleted and resuspended in 1 mL PBS+0.1% (v/v) Triton X-100. RNase A and then propidium iodide (PI) were added to 0.2 mg/mL and 20 μg/mL, respectively. Samples were incubated at 37° C. for 15 minutes and filtered into a flow cytometry tube. DNA content was measured by flow cytometry (BD FACS Canto II) and analyzed (FACS Diva Software).

Jurkat cells = assay: Proliferation assay (Cell Titer Glo, 5 days) of wild type and knock-out Jurkat cells; format: cell-based, human; conditions: 5 days
Description: sgRNAs (oligonucleotide sequences are indicated above) were cloned into lentiCRISPR-v1 linearized with BsmBI by Gibson Assembly (NEB). sgRNA expressing vector along with lentiviral packaging vectors Delta-VPR and CMV VSVG were transfected into HEK-293T cells using the XTremeGene 9 transfection reagent (Roche). Similarly, for overexpression cell lines, cDNA vectors along with retroviral packaging vectors gag-pol and CMV VSV-G were transfected into HEK-293T cells. Media was changed 24 hours after transfection.

[5] = tested on: MERRF and CYTB cybrids, 143B ρ0 cells; assay: Cell counting assay of cybrids and 143B ρ0 cells; format: cell-based; conditions: 6 days; for Proliferation of ETC-deficient cybrids and 143B ρ0 cells: RPMI with uridine, pyruvate (1 mM) or aspartate (10 mM); for Proliferation of ETC-defective cybrids expressing sgGOT1: uridine and pyruvate (1 mM), with or without aspartate (10 mM)
Description: Cybrids or 143B ρ0 cells were plated in triplicate in 12 well plates at 5,000-20,000 cells per well in 1.5 mL as described in each experiment. After six days, the entire contents of the well was trypsinized and counted using a Beckman Z2 Coulter Counter with a size selection setting of 8-30 um.
Transmitochondrial cytoplasmic hybrid cells (cybrids) are commonly used to study the mechanisms through which mutations in mitochondrial DNA (mtDNA) impair cellular function (Schon et al., 2012). These cells harbor patient-derived mitochondrial genomes with pathogenic mutations, and, like cells treated with ETC inhibitors, require pyruvate to proliferate in culture (King and Attardi, 1989, 1996). To expand upon our work with pharmacological inhibition of the ETC, we asked if aspartate supplementation rescues the proliferation of cells with genetic ETC defects. We used two patient-derived cybrid cells, the first with a homoplasmic microdeletion in the cytochrome b subunit of complex III (CYTB) associated with a form of parkinsonism and encephalopathy (De Coo et al., 1999; Rana et al., 2000), and the second with a homoplasmic point mutation in the mitochondrially encoded tRNA lysine (MT-TK) associated with myoclonic epilepsy with ragged red fibers (MERRF) (Wallace et al., 1988). To characterize the metabolic needs of these cybrids, as well as cells lacking mtDNA (143B ρ0), we cultured them in media with or without pyruvate or aspartate.

[6] = pyruvate (1 mM), phenformin, piericidin, antimycin

Question: For `CCC(=O)C(=O)O` [AKB, α-ketobutyrate], which “Proliferation of cell line panel with supplementation” value [1] is on record?
Answer: The value was “sufficient to restore proliferation in the presence of ETC inhibitors”.

Question: And the “Mitochondrial oxygen consumption rate” value [2]?
Answer: Its value is “does not alter oxygen consumption”.

Question: What about the “Aspartate intracellular pool size” value (143B CytB cells [3]) of the same compound?
Answer: The value was “also decreased”.

Question: What about the “Glutamate intracellular pool size” value (143B CytB cells [3]) of the same compound?
Answer: Its value is “only modestly decreased”.

Question: What about the “TCA cycle metabolite pool sizes” value (143B CytB cells [3]) of the same compound?
Answer: The value was “drastically lowered”.

Question: What about the “Cell cycle distribution (DNA content)” value (143B CytB cells [4]) of the same compound?
Answer: The value was “do not obviously arrest at a specific stage of the cell cycle”.

Question: With `N[C@@H](CC(=O)O)C(=O)O` [aspartate] as the compound, how does the “Proliferation of cell line panel with supplementation” value [1] read?
Answer: The value was “rescued ETC inhibitor-induced proliferation decreases in all other cell lines tested”.

Question: And the “Mitochondrial oxygen consumption rate” value [2]?
Answer: Its value is “neither increased mitochondrial oxygen consumption”.

Question: What about the “Proliferation of phenformin-treated wild-type Jurkat cells with aspartate” value (Jurkat cells; aspartate (10 mM) in RPMI) of the same compound?
Answer: Its value is “partially reversed the anti-proliferative effects of phenformin on wild-type cells”.

Question: And the “Viability and proliferation of phenformin-treated GOT1-null Jurkat cells with aspartate” value (Jurkat cells; aspartate (10 mM) in RPMI)?
Answer: Its value is “rescues death of GOT1-null cells upon ETC inhibition; also recorded: prevented the phenformin induced death of GOT1-null cells and even enabled these cells to proliferate in the presence of the drug”.

Question: What about the “Proliferation of ETC-deficient cybrids and 143B ρ0 cells” value [5] of the same compound?
Answer: Its value is “on its own enabled their proliferation; also recorded: can replace pyruvate in enabling the proliferation of patient-derived mtDNA mutant cybrids and 143B ρ0 cells”.

Question: What about the “Proliferation of ETC-defective cybrids expressing sgGOT1” value [5] of the same compound?
Answer: The value was “bypassed the need for GOT1; also recorded: can be bypassed by aspartate”.

Question: With `CC(=O)C(=O)O` [pyruvate] as the compound, how does the “Proliferation of ETC inhibitor-treated MDH1-null Jurkat cells with pyruvate” value (Jurkat cells; pyruvate (1 mM)) read?
Answer: Its value is “did not stimulate aspartate synthesis or rescue proliferation; also recorded: does not rescue the proliferation of phenformin-treated MDH1 null cells”.

Question: What about the “Proliferation of ETC inhibitor-treated PC-null Jurkat cells with pyruvate” value (Jurkat cells; pyruvate (1 mM), phenformin (10 μM), antimycin (1 μM) or piericidin (0.5 μM)) of the same compound?
Answer: Its value is “still prevented the anti-proliferative effects of ETC inhibitors; also recorded: can rescue the death of PC-null cells induced by ETC inhibition”.

Question: What about the “Proliferation of ETC inhibitor-treated wild type Jurkat cells with pyruvate” value (Jurkat cells; [6]) of the same compound?
Answer: Its value is “almost completely blocked the anti-proliferative effects of several ETC inhibitors”.

Question: And the “Viability and proliferation of ETC inhibitor-treated GOT1-null Jurkat cells with pyruvate” value (Jurkat cells; [6])?
Answer: Its value is “cannot rescue death of GOT1-null cells induced by ETC inhibitors; also recorded: no beneficial effect on the GOT1-null cells”.

Question: What about the “Proliferation of ETC-deficient cybrids and 143B ρ0 cells” value [5] of the same compound?
Answer: Its value is “proliferated in media supplemented with pyruvate”.

Question: What about the “Proliferation of ETC-defective cybrids expressing sgGOT1” value [5] of the same compound?
Answer: Its value is “requires GOT1; also recorded: enables the proliferation of patient-derived cybrid cells in a GOT1-dependent fashion”.
